Structures can show the parent of a compound that is named as a salt.
Assays:
[1] = Clinical bioavailability study with granisetron patches and ViaDerm versus oral delivery (plasma levels, irritation); details: human, 1 tablet of 1 mg twice daily, reached only for short time periods, unsteady profile
Description: Granisetron HCl patches were applied on the skin of the upper arm and fore arm of healthy adult volunteers. […] Irritation was examined by monitoring edema and erythema as described in Example 6.
The experiment was conducted with six subjects, in a crossover manner. Each subject received four different treatments, i.e. various administration methods at various sites of patch application, with at least six days washout period between treatments.
ViaDerm performance was assessed by a study conducted with twenty healthy, adult volunteers, 10 males and 10 females. […] Each subject received 10 treatments, in a randomized manner such that a given treatment was applied to different subjects and/or in each subject at different sites. • Treatment protocol. The treatment sites were the inner arm and hand. […] Measuring Transdermal Water Loss (TEWL) at a skin site treated with ViaDerm in comparison to an adjacent untreated skin assessed formation of micro-channels. […]

[2] = Clinical patch-size study with granisetron patches and ViaDerm (plasma levels, erythema/edema)
Description: The purpose of the first phase study was to determine patch size per drug dose. The target population for the study was healthy male and female volunteers who signed informed consent and fulfilled the following inclusion criteria: • 1. Are capable of understanding and signing an informed consent • 2. Are between the ages of 18 and 60 years • 3. Are medically stable • 4. Have fair skin color that enable to observe erythema and/or edema. • 5. Have two hands with no obvious marks, bruises, cuts, and abrasions on the back of the hand. • 6. Hemoglobin more than 12 gm % in females and more than 14 gm % in males.
Granisetron HCl patches were applied on the skin of the upper arm and fore arm of healthy adult volunteers. […] Irritation was examined by monitoring edema and erythema as described in Example 6. […]
ViaDerm performance was assessed by a study conducted with twenty healthy, adult volunteers, 10 males and 10 females. […] Measuring Transdermal Water Loss (TEWL) at a skin site treated with ViaDerm in comparison to an adjacent untreated skin assessed formation of micro-channels. Safety of ViaDerm was evaluated by measuring irritation (erythema and edema) at the treatment site using a scale of zero to eight in accordance with Draize irritation index (Table 4). The response to irritation induced by ViaDern was assessed by a Cumulative Irritation Index (Table 5). […]

[3] = Pharmacokinetic study of transdermal drug delivery in rats (granisetron hydrogel patch with or without ViaDerm); assay type: in vivo, Male Sprague-Dawley rats; details: 3% granisetron HCl hydrogel patch
Description: Male Sprague-Dawley rats (400-500 g, Harlan Laboratories Ltd., Jerusalem, Israel) were anesthetized (5 mg/kg ketamine i.p.) and were placed dorsally. Anesthesia was maintained until the end of the transdermal treatment and during blood sampling by injections of 0.1 ml ketamine and Xyalzine (60-80 mg/ml) every 30-40 min. The abdominal skin was shaved and cleaned with isopropyl alcohol. After 30 minutes, the transepidermal water loss was measured in order to verify skin integrity and RF-micro-channeling took place on the abdominal skin of a test group. […] A granisetron patch, made of a solution of 3% granisetron HCl soaked in a hydrogel sheet of 1.4 cm , was then attached to the skin surface for 24 hr in special containers glued to the skin by silicon medical glue. Blood samples were taken from the heart into heparinized tubes. After centrifugation, plasma samples were kept at −20° C. until analyzed for drug levels by HPLC.
The procedure was basically performed according to Kudoh et al, J. Chromatography 660(1994) p. 205. Phosphate buffer (500 μl, pH 7, 67 mM) was mixed with one ml plasma. […] Aliquots (30 μl) from each sample were injected into the HPLC (1050 HP), equipped with a pre-packed C8 column (BDS-Hypersil, UK; C-8 100×3.0 mm, 3 μm), an auto-sampler, and a fluorescence detector (Model 1046A). Granisetron was detected by excitation at 305 nm and emission at 365 nm. […]

With `CN1C2CCCC1CC(NC(=O)c1nn(C)c3ccccc13)C2` (centres unmarked) [granisetron, granisetron hydrochloride] the “plasma levels of granisetron” value [1] was “above 4 ng/ml”, the “maximal concentration of granisetron in human plasma versus patch size” value ([2]; ViaDerm + patches of 2.8, 5.6 and 8.4 cm^2) was “linearly correlated with the size of patch” and the maximal plasma concentration ([2]; human, ViaDerm + granisetron patch (3% drug) covering 5.6 cm^2, applied 24 hours) was “above 4 ng/ml”. For the same compound, the “granisetron plasma level (peak)” value ([3]; rats not treated with ViaDerm, peak at 2.5 hours after application) was “lower than 50 ng/ml” and the granisetron plasma level ([3]; rats pretreated with ViaDerm, reached during first 12 hours, maintained for additional 12 hours) was “above 200 ng/ml”.

Reference: US7415306B2, “Transdermal delivery system for anti-emetic medication” (TransPharma Medical Ltd., priority 2002, dated 2008)
